Our source for the MIC values is ChEMBL document CHEMBL5126604, “Design, Synthesis, and Biological Evaluation of Pyrrole-2-carboxamide Derivatives as Mycobacterial Membrane Protein Large 3 Inhibitors for Treating Drug-Resistant Tuberculosis” (J Med Chem, 2022).

Experiment [1] deals with Mycobacterium tuberculosis. Put plainly: microbe, parasite or virus in culture. Particulars: Mycobacterium tuberculosis, 13946, 168 h.
The test system of experiment [2] is Mycobacterium tuberculosis. Description: microbe, parasite or virus in culture. The conditions noted are these: Mycobacterium tuberculosis, 14862, 168 h.

A value given as a limit tells only on which side of the number the result lay.

Regarding `O=C(NC1C2CC3CC(C2)CC1C3)c1cc(-c2ccc(F)nc2F)c[nH]1` (stereo unspecified), the MIC in experiment [1] and in experiment [2] was under 0.016 µg/mL throughout.

`O=C(NC12CC3CC(CC(C3)C1)C2)c1cc(-c2ccc(F)cc2F)c[nH]1`: the MIC in experiment [1] and in experiment [2] was under 0.016 µg/mL throughout.

Turning to `O=C(NC12CC3CC(CC(C3)C1)C2)c1cc(-c2ccc(F)nc2F)c[nH]1`, the MIC in experiment [1] and in experiment [2] was under 0.016 µg/mL each time.
